Earlier results as cited in publication PMC6780087 (Marine Drugs, 2019).

How the values were obtained:
NaChBac [1] = settings: ref [54]
NaChBac [2] = settings: ref [55]

## CC(C)c1cccc(C(C)C)c1O [propofol]
NaChBac [1]
  effect on NaChBac: inhibits peak currents and promotes activation-linked inactivation in NaChBac
NaChBac [2]
  binding to NaChBac: binding to multiple channel sites
